Measured values taken from patent publication US9365613B2, “Acylated 4-amidino- and -4-guanidinobenzylamines for inhibition of plasma kallikrein” (The Medicines Company (Leipzig) GmbH, priority 2003, dated 2016).

Experiments:
Assay type in all cases: biochemical
[1] = target: T1, human factor XIa (Homo sapiens, UniProt P03951); test: Inhibitory constants for factor XIa (substrate H-D-Lys(Z)-Pro-Arg-pNA, Chromozym PCa); settings: read-out: Ki F XIa
T1 construct: purchased Haemochrom Diagnostica GmbH, Essen, Germany
T1 sequence (P03951 388-625 limits assumed): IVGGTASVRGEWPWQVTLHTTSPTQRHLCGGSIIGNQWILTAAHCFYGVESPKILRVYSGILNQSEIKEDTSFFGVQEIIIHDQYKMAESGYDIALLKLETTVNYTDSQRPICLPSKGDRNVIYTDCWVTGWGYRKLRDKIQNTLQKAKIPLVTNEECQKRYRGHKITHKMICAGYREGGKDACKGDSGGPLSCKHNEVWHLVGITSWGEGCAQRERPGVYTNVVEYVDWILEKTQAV
T1 sequence (P03951 19-387 partner limits assumed): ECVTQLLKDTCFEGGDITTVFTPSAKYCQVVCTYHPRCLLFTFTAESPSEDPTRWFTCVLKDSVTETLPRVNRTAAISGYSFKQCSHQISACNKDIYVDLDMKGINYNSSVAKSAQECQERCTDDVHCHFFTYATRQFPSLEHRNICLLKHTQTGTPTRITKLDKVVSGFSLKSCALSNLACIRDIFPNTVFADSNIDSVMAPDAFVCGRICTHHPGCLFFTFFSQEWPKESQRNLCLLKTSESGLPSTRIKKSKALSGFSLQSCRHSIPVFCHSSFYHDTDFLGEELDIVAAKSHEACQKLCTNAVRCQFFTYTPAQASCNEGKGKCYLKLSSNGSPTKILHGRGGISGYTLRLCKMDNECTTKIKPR
Method: (§1) The inhibitory effect for the individual enzymes was determined in analogy with a method which has already been described (Stürzebecher et al., J. Med. Chem. 40, 3091-3099, 1997).
(§2) After 3 min, the reaction was terminated by adding 25 μl of acetic acid (50%) and the absorption at […] was determined using a Microplate Reader (Labsystems iEMS Reader MF). The Ki values were determined, in accordance with Dixon (Biochem. J. 55, 170-171, 1953), by means of linear regression and using a computer program. The Ki values are the mean of at least three determinations.
(§3) The inhibition of factor XIa and factor XIIa was determined in an analogous manner. When determining the inhibitory constants for human factor XIa (Haemochrom Diagnostica GmbH, Essen, Germany), H-D-Lys(Z)-Pro-Arg-pNA (Chromozym PCa, Roche Diagnostics GmbH, Mannheim, Germany) was used as the substrate.

[2] = target: plasma kallikrein (PK) (Homo sapiens, UniProt P03952); test: Determining the inhibitory constants: inhibition of PK (substrate Bzl-Pro-Phe-Arg-pNA); settings: Tris buffer pH 8.0, 25° C.; mean of at least three determinations
Sequence of plasma kallikrein (PK) (P03952 391-638 limits assumed, species assumed): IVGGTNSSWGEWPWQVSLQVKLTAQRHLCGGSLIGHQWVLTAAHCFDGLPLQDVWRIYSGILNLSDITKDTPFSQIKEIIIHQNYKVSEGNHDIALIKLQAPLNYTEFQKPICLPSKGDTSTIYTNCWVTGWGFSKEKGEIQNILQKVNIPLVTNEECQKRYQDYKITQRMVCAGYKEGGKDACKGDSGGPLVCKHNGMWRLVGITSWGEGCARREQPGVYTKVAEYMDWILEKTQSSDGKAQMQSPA
Sequence of plasma kallikrein (PK) (P03952 20-390 partner limits assumed, species assumed): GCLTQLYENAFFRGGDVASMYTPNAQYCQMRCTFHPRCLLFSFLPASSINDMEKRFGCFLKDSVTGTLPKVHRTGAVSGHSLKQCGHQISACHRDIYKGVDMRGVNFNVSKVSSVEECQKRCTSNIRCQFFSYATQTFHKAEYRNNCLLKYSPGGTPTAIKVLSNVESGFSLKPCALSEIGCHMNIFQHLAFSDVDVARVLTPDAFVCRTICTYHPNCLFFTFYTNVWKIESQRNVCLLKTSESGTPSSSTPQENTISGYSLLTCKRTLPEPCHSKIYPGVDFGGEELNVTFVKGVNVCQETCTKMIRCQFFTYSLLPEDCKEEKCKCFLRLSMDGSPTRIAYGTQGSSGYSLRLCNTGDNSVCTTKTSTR
Method: as §1, §2

[3] = target: thrombin (UniProt P00735); test: Inhibitory constants for thrombin; settings: read-out: Ki Thrombin
[4] = target: T2, human factor XIIa (Homo sapiens, UniProt P00748); test: Inhibitory constants for factor XIIa (substrate H-D-HHT-Gly-Arg-pNA, Chromozym XII); settings: read-out: Ki F XIIa
T2 construct: purchased Haemochrom Diagnostica GmbH, Essen, Germany
T2 sequence (P00748 373-615 limits assumed, other chains not shown): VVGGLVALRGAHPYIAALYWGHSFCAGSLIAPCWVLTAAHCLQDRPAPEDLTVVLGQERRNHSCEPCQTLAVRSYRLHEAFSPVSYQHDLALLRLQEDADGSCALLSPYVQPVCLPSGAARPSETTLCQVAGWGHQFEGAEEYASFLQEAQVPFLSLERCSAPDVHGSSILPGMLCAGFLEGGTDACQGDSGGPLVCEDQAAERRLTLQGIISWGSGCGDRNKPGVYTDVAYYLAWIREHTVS
Method: as §1, §2, §3
H-D-HHT-Gly-Arg-pNA (Chromozym XII, Roche Diagnostics GmbH, Mannheim, Germany) was used as the substrate for measuring the inhibitory constants of human factor XIIa (Haemochrom Diagnostica GmbH, Essen, Germany).

Compound | Ki [1] | Ki [2] | Ki [3] | Ki [4]
CC(C)(C)OC[C@@H](NS(=O)(=O)Cc1ccccc1)C(=O)N[C@@H](CO)CC(=O)NCc1ccc(C(=N)N)cc1 [Inhibitor 42] | 0.74 µM | 0.21 µM | 13 µM | > 1000 µM
N=C(N)c1ccc(CNC(=O)[C@@H]2CCCN2C(=O)[C@@H](CC2CCCCC2)NS(=O)(=O)Cc2cccc(CNC(=O)CCCC(=O)O)c2)cc1 [Inhibitor 56] | 0.052 µM | 0.044 µM | < 0.001 µM | 5.6 µM
N=C(N)c1ccc(CNC(=O)[C@H](CC(=O)O)NC(=O)[C@@H](CO)NS(=O)(=O)Cc2ccccc2)cc1 [Inhibitor 4] | – | 3.7 µM | > 1000 µM | > 1000 µM
N=C(N)NCCC[C@@H](NS(=O)(=O)Cc1ccccc1)C(=O)NCC(=O)NCc1ccc(C(=N)N)cc1 [Inhibitor 81] | 0.7 µM | 0.074 µM | 1.4 µM | 0.35 µM
N=C(N)c1ccc(CNC(=O)[C@H](CCCCNC(=O)CCCC(=O)O)NC(=O)[C@@H](CO)NS(=O)(=O)Cc2ccccc2)cc1 [Inhibitor 86] | – | 0.39 µM | 2.8 µM | –
N=C(N)c1ccc(CNC(=O)[C@H](CO)NC(=O)[C@@H](CCc2ccc(O)cc2)NS(=O)(=O)Cc2ccccc2)cc1 [Inhibitor 73] | 0.078 µM | 0.13 µM | – | 0.28 µM
CC(C)(C)OC[C@@H](NS(=O)(=O)Cc1ccccc1)C(=O)NCC(=O)NCc1ccc(C(=N)N)cc1 [Inhibitor 26] | 1.4 µM | 0.34 µM | 0.22 µM | 2.6 µM
N=C(N)c1ccc(CNC(=O)[C@H](CCc2ccccc2)NC(=O)[C@@H](CO)NS(=O)(=O)Cc2ccccc2)cc1 [Inhibitor 19] | 0.084 µM | 0.048 µM | 1.2 µM | 2.8 µM
COC(=O)c1ccc(CS(=O)(=O)N[C@H](CO)C(=O)NCC(=O)NCc2ccc(C(=N)N)cc2)cc1 [Inhibitor 21] | 8.1 µM | 4.2 µM | 9.4 µM | 42 µM
CC(C)(C)OC[C@@H](NS(=O)(=O)Cc1ccc(CN)cc1)C(=O)NCC(=O)NCc1ccc(C(=N)N)cc1 [Inhibitor 50] | 2.9 µM | 4 µM | 0.12 µM | 1.8 µM
N=C(N)c1ccc(CNC(=O)[C@H](CCC(=O)O)NC(=O)[C@@H](CC2CCCCC2)NS(=O)(=O)Cc2ccccc2)cc1 [Inhibitor 57] | 0.02 µM | 0.03 µM | 0.081 µM | 4 µM
N=C(N)c1ccc(CNC(=O)[C@H](CO)NC(=O)[C@@H](CO)NS(=O)(=O)Cc2ccccc2)cc1 [Inhibitor 15] | 0.3 µM | 0.16 µM | 14 µM | 80 µM
CC(C)(C)OC[C@@H](NS(=O)(=O)Cc1ccccc1)C(=O)N[C@@H](CCCNC(=N)N)C(=O)NCc1ccc(C(=N)N)cc1 [Inhibitor 37] | 0.34 µM | 0.04 µM | 0.065 µM | 2.6 µM
C[C@@H](O)[C@H](NC(=O)[C@@H](CO)NS(=O)(=O)Cc1ccccc1)C(=O)NCc1ccc(C(=N)N)cc1 [Inhibitor 13] | 0.25 µM | 0.24 µM | 4 µM | 51 µM
N=C(N)c1ccc(CNC(=O)[C@H](CCC(=O)O)NC(=O)[C@@H](CO)NS(=O)(=O)Cc2ccccc2)cc1 [Inhibitor 5] | – | 1.1 µM | 38 µM | > 1000 µM
N=C(N)c1ccc(CNC(=O)CNC(=O)[C@H](NS(=O)(=O)Cc2ccccc2)C2Cc3ccccc3C2)cc1 [Inhibitor 83] | – | 0.075 µM | 0.14 µM | 0.37 µM
N=C(N)c1ccc(CNC(=O)CNC(=O)[C@@H](CCc2ccccc2)NS(=O)(=O)Cc2ccc(N)cc2)cc1 [Inhibitor 78] | 0.12 µM | 0.045 µM | – | 0.26 µM
N=C(N)c1ccc(CNC(=O)[C@H](CCC(=O)O)NC(=O)[C@@H](CCc2ccc(O)cc2)NS(=O)(=O)Cc2ccccc2)cc1 [Inhibitor 72] | 0.028 µM | 0.22 µM | – | 0.36 µM
N=C(N)c1ccc(CNC(=O)CNC(=O)C(CCc2ccncc2)NS(=O)(=O)Cc2ccccc2)cc1 (stereo not shown) [Inhibitor 85] | 1.1 µM | 0.13 µM | – | 0.4 µM
C[C@@H](O)[C@H](NC(=O)[C@@H](COC(C)(C)C)NS(=O)(=O)Cc1ccccc1)C(=O)NCc1ccc(C(=N)N)cc1 [Inhibitor 38] | – | 0.032 µM | 0.044 µM | 14 µM
N=C(N)c1ccc(CNC(=O)CNC(=O)[C@@H](CCc2ccc(O)cc2)NS(=O)(=O)Cc2ccccc2)cc1 [Inhibitor 75] | 0.61 µM | 0.12 µM | – | 0.78 µM
CC(C)(C)OC[C@@H](NS(=O)(=O)Cc1ccc(C(=O)O)cc1)C(=O)NCC(=O)NCc1ccc(C(=N)N)cc1 [Inhibitor 46] | – | 0.029 µM | 2.2 µM | 7.5 µM
N=C(N)c1ccc(CNC(=O)CNC(=O)[C@@H](CCc2ccccc2)NS(=O)(=O)Cc2ccccc2)cc1 [Inhibitor 76] | 0.27 µM | 0.39 µM | – | 0.15 µM
N#Cc1cccc(CS(=O)(=O)N[C@H](CC2CCCCC2)C(=O)N2CCC[C@H]2C(=O)NCc2ccc(C(=N)N)cc2)c1 [Inhibitor 52] | – | 0.086 µM | < 0.001 µM | 13 µM

Continued by falling Ki [2], values first:

Ki [1] | Ki [2] | Ki [3] | Ki [4] | Compound
– | 0.029 µM | 0.0021 µM | 11 µM | N=C(N)c1ccc(CNC(=O)[C@H](CCCCNC(=O)CCC(=O)O)NC(=O)[C@@H](CC2CCCCC2)NS(=O)(=O)Cc2ccccc2)cc1 [Inhibitor 71]
0.3 µM | 0.025 µM | 0.48 µM | 9.8 µM | N=C(N)c1ccc(CNC(=O)[C@H](COCc2ccccc2)NC(=O)[C@@H](CO)NS(=O)(=O)Cc2ccccc2)cc1 [Inhibitor 16]
– | 0.025 µM | 0.0023 µM | 2.4 µM | CC(C)(C)OC[C@@H](NS(=O)(=O)Cc1ccc(C(=O)O)cc1)C(=O)N1CCC[C@H]1C(=O)NCc1ccc(C(=N)N)cc1 [Inhibitor 70]
0.31 µM | 0.025 µM | 0.37 µM | 0.93 µM | CC(C)(C)OC[C@@H](NS(=O)(=O)Cc1ccccc1)C(=O)N[C@@H](CNC(=O)OCc1ccccc1)C(=O)NCc1ccc(C(=N)N)cc1 [Inhibitor 34]
0.19 µM | 0.022 µM | 0.0094 µM | 4 µM | CC(C)(C)OC[C@@H](NS(=O)(=O)Cc1ccccc1)C(=O)N[C@@H](CN)C(=O)NCc1ccc(C(=N)N)cc1 [Inhibitor 33]
0.92 µM | 0.021 µM | 1.6 µM | 0.97 µM | N=C(N)c1ccc(CNC(=O)[C@H](Cc2ccccc2)NC(=O)[C@@H](CO)NS(=O)(=O)Cc2ccccc2)cc1 [Inhibitor 18]
– | 0.02 µM | 8.5 µM | > 1000 µM | N=C(N)c1ccc(CNC(=O)C[C@H](CO)NC(=O)[C@@H](CO)NS(=O)(=O)Cc2ccccc2)cc1 [Inhibitor 17]
– | 0.02 µM | 0.91 µM | 1.6 µM | N=C(N)c1ccc(CNC(=O)[C@H](CO)NC(=O)[C@@H](CCc2ccncc2)NS(=O)(=O)Cc2ccccc2)cc1 [Inhibitor 69]
– | 0.019 µM | 0.038 µM | 6.8 µM | CC(C)(C)OC[C@@H](NS(=O)(=O)Cc1ccccc1)C(=O)N[C@@H](CCONC(=N)N)C(=O)NCc1ccc(C(=N)N)cc1 [Inhibitor 68]
0.89 µM | 0.016 µM | 4.3 µM | 21 µM | N=C(N)c1ccc(CNC(=O)[C@H](CCCCN)NC(=O)[C@@H](CO)NS(=O)(=O)Cc2ccccc2)cc1 [Inhibitor 10]
0.015 µM | 0.016 µM | 2.3 µM | 17 µM | C[C@H](NC(=O)[C@@H](CO)NS(=O)(=O)Cc1ccc(C(=O)O)cc1)C(=O)NCc1ccc(C(=N)N)cc1 [Inhibitor 22]
– | 0.016 µM | 0.0018 µM | 4 µM | CC(C)(C)OC[C@@H](NS(=O)(=O)Cc1ccc(CC(=O)O)cc1)C(=O)N1CCC[C@H]1C(=O)NCc1ccc(C(=N)N)cc1 [Inhibitor 66]
– | 0.014 µM | 0.12 µM | 61 µM | CC(C)(C)OC[C@@H](NS(=O)(=O)Cc1ccccc1)C(=O)N[C@@H](Cc1c[nH]cn1)C(=O)NCc1ccc(C(=N)N)cc1 [Inhibitor 64]
0.2 µM | 0.012 µM | 0.012 µM | 1.4 µM | CC(C)(C)OC[C@@H](NS(=O)(=O)Cc1ccccc1)C(=O)N[C@@H](COCc1ccccc1)C(=O)NCc1ccc(C(=N)N)cc1 [Inhibitor 41]
25 µM | 0.011 µM | 0.009 µM | 0.7 µM | N=C(N)c1ccc(CNC(=O)CNC(=O)[C@@H](CC2CCCCC2)NS(=O)(=O)Cc2ccccc2)cc1 [Inhibitor 63]
– | 0.011 µM | 0.0029 µM | 6.1 µM | CC(C)(C)OC[C@@H](NS(=O)(=O)Cc1ccccc1)C(=O)N[C@@H](CCCCNC(=O)C(F)(F)F)C(=O)NCc1ccc(C(=N)N)cc1 [Inhibitor 62]
0.26 µM | 0.0055 µM | 0.16 µM | 4.6 µM | CC(C)(C)OC[C@@H](NS(=O)(=O)Cc1ccccc1)C(=O)N[C@@H](Cc1ccccc1)C(=O)NCc1ccc(C(=N)N)cc1 [Inhibitor 44]
